Experimental data from patent US6340692B1, “Injectable anesthetic” (priority 1999, dated 2002).

Tests used:
male chinchilla rabbits = experiment: Epidural anesthesia in rabbits; assay type: in vivo; conditions: for effective duration of epidural anesthesia: chinoxicaine 2.0% solution, Lidocaine as comparison
Experimental: A study of epidural anesthesia was conducted on male chinchilla rabbits. The epidural puncture was made in the area of the third and fourth lumbar vertebrae by means of a Tuohi-Peridur needle. A 2.0% solution of chinoxicaine was injected into the epidural area in a volume determined in accordance with the following formula: [formula]

male guinea pigs = experiment: Infiltration anesthesia, Beulbring-Wade method; assay type: in vivo
Experimental: The pharmacological activity of chinoxicaine has been evaluated using the characteristics of: i) strength of anesthesia, ii) latent period, and iii) duration of anesthesia. A study of infiltration anesthesia was conducted according to the Beulbring-Wade method on male guinea pigs. The median effective concentration (EC50) was 0.1%. Latent period was about 1.5 minutes. The duration of deep anesthesia was: i) 25 minutes for the 0.1% solution, ii) 140.5 minutes for a 0.25% solution, iii) 310.8 minutes for a 0.5% solution, and iv) 313.8 minutes for a 1.0% solution. On the basis of specific pharmacological activity data, described in greater detail below, chinoxicaine is preferably provided as either a 0.25% or 0.5% solution in 250 mL bottles for use in infiltration anesthesia, and as a 1.0% or 2.0% solution in 5 mL ampoules for conduction and epidural anesthesia. In alternative embodiments, the anesthesia solution includes a 0.9% solution of sodium chloride.

sciatic nerve = experiment: Sciatic nerve conduction anesthesia, Camaugis-Tekman method; assay type: in vivo, rats; conditions: for duration of the anesthesia: 0.2 mL
Experimental: A study of sciatic nerve conduction anesthesia in rats was conducted in accordance with the Camaugis-Tekman method. Prior to injection of the anesthesia, the rat motor activity was evaluated by applying a compression to the animal's feet. Then, a 0.2 mL volume of chinoxicaine solution was injected into the sciatic nerve area of the pronated lower extremity. With the application of a subsequent compression to the its feet, the animal's reaction was evaluated by observing if the animal pulled apart its toes in a ‘fan-shaped’ manner when suspended by its tail. It was determined that both 1.0% and 2.0% concentrations of chinoxicaine solutions produced fast, deep, and prolonged anesthesia. The anesthesia reached fill extent within 2.0±0.3 minutes, with either concentration.

white non-breeding rats = experiment: Conduction anesthesia, injection under the tail skin; assay type: in vivo; conditions: 1.0 mL under the tail skin
Experimental: A study of conduction anesthesia was carried out on white non-breeding rats weighing 180 to 220 grams. The anesthetic solution was injected under the tail skin on four sides in a 1.0 mL volume at concentrations ranging from 0.1% to 1.0%. Duration of the anesthetic solution was 120.3±7.1 minutes for the 0.1% concentration, 300.5±15.5 minutes for a 0.25% concentration, 306.0±16.2 minutes for a 0.5% concentration, and 320.0±13.1 minutes for the 1.0% concentration.

[1] = Conduction anesthesia, some models (general statements); assay type: in vivo
[2] = infiltration anesthesia, male guinea pigs

## CCN(CC)CC(=O)Nc1c(C)cccc1C [Lidocaine, reference compound]
Male chinchilla rabbits; epidural
  effective duration of epidural anesthesia: about 100 minutes

## CCCn1c(=O)c(C(=O)NCCN(CC)CC)c(O)c2ccccc21.Cl [chinoxicaine, hydrochloride diethylaminoethylamide 1-propyl-2 oxy-4-hydroxyquinolin-3-carbonic acid]
Male guinea pigs; 0.1% solution
  duration of deep anesthesia: 25 min
Male guinea pigs; 0.25% solution
  duration of deep anesthesia: 140.5 min
Male guinea pigs; 0.5% solution
  duration of deep anesthesia: 310.8 min
Male guinea pigs; 0.5% solution, long infiltration applications
  effectiveness relative to Lidocaine or Azacaine: ≤ 2.5 times
Male guinea pigs; 1.0% solution
  duration of deep anesthesia: 313.8 min
Male guinea pigs; infiltration anesthesia
  increase in activity as compared to Lidocaine: two-fold increase
  increase in activity over Trimecaine: comparable increase
Male guinea pigs; [2]
  Latent period: about 1.5 minutes
  median effective concentration (EC50): 0.1%
Sciatic nerve; 1.0% concentration
  duration of the anesthesia: 138.0 ± 8.9 min
Sciatic nerve; 2.0% concentration
  duration of the anesthesia: 205.0 ± 12.6 min
Sciatic nerve; either 1.0% or 2.0% concentration, 0.2 mL into sciatic nerve area
  time until anesthesia reached full extent: ≤ 2.0 ± 0.3 min
Male chinchilla rabbits; 2.0% solution, epidural
  time from injection to deep and prolonged anesthesia: ≤ 5.0 min
Male chinchilla rabbits; epidural
  effective duration of epidural anesthesia: at least 200 minutes
Male chinchilla rabbits; epidural anesthesia
  increase in activity as compared to Lidocaine: two-fold increase
Male chinchilla rabbits; rabbits
  duration of long and deep epidural and peridermal anesthesia: about 270 minutes
White non-breeding rats; 0.1% concentration
  Duration of conduction anesthesia: 120.3 ± 7.1 min
White non-breeding rats; 0.25% concentration
  Duration of conduction anesthesia: 300.5 ± 15.5 min
White non-breeding rats; 0.5% concentration
  Duration of conduction anesthesia: 306.0 ± 16.2 min
White non-breeding rats; 1.0% concentration
  Duration of conduction anesthesia: 320.0 ± 13.1 min
[1]; 0.5% solution, conduction applications
  effective duration relative to Trimecaine or Lidocaine: as much as twice
[1]; conduction anesthesia
  increase in activity over Trimecaine: comparable increase
